Source: patent US10023570B2 (Array BioPharma, Inc., priority 2015, dated 2018)

These molecules were tested against human KDR protein in HEK-293 cells (Homo sapiens (Human), UniProt P35968) (assay: KDR Cell Assay (phospho-KDR in HEK-293 cells expressing inducible KDR)). Settings: pKDR Cell HEK 10% FBS IC50, HEK-293 cells expressing inducible KDR, VEGF stimulated, 10% FBS.
Type: cell-based
Procedure, shortened: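 HEK-293 cells with inducible human KDR were treated with compound for 1 h in DMEM (0.25% DMSO final), then lysed. Phospho-KDR was quantified by Meso Scale immunoassay, expressed as percent of control, and IC50 taken where a 4-parameter logistic fit crossed 50 POC.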

Sequence of human KDR protein in HEK-293 cells (P35968 20-1356): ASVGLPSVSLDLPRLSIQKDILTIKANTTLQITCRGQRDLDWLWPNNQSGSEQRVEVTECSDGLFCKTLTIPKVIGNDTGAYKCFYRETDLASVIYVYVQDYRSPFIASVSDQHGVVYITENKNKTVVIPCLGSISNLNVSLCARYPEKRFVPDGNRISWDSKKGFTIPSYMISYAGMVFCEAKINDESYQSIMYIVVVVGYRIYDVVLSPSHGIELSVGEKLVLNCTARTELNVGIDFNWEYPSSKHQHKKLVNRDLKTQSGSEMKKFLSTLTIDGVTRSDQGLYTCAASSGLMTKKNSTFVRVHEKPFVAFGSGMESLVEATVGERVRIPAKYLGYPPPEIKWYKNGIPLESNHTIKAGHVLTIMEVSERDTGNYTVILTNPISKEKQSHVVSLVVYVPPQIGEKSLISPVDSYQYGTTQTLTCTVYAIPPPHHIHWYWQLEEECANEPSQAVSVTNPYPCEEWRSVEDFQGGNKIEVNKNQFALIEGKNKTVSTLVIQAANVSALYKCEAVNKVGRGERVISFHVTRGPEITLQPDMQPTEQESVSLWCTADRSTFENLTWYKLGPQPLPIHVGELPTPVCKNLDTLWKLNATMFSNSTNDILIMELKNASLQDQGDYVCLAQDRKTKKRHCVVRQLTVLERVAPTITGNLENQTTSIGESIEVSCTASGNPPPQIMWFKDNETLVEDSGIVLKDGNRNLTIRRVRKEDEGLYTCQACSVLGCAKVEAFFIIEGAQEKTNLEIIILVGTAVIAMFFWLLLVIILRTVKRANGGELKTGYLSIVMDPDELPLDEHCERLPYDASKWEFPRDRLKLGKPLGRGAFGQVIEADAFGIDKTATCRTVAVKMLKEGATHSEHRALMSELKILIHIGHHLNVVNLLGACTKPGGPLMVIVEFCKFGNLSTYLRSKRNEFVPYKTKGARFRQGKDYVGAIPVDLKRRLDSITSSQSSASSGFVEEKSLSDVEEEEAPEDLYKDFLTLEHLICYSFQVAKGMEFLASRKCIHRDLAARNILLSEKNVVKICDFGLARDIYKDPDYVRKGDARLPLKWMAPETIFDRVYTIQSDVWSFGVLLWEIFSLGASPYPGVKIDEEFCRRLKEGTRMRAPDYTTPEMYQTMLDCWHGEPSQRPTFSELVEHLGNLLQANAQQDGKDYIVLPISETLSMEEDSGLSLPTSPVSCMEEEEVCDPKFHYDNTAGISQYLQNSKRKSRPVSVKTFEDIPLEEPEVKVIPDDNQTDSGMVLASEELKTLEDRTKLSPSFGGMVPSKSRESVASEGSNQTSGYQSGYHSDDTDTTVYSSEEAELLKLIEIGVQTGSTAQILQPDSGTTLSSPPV

Structure (SMILES) | IC50 [µM]
Cn1cc(-c2cc(-c3ccc(N4CC5(CCN(C(=O)OC(C)(C)C)CC5)C4)nc3)c3c(C#N)cnn3c2)cn1 [Example 223, tert-butyl 2-(5-(3-cyano-6-(1-methyl-1H-pyrazol-4-yl)pyrazolo[1,5-a]pyridin-4-yl)pyridin-2-yl)-2,7-diazaspiro[3.5]nonane-7-carboxylate] | 1.55
CO[C@H]1C[C@H](NC(=O)C2CCN(c3ccc(-c4cc(-c5cnn(C)c5)cn5ncc(C#N)c45)cn3)CC2)C1 [Example 240, 1-(5-(3-cyano-6-(1-methyl-1H-pyrazol-4-yl)pyrazolo[1,5-a]pyridin-4-yl)pyridin-2-yl)-N-((1r,3r)-3-methoxycyclobutyl) piperidine-4-carboxamide] | 0.897
CO[C@H]1C[C@@H](NC(=O)C2CCN(c3ccc(-c4cc(-c5cnn(C)c5)cn5ncc(C#N)c45)cn3)CC2)C1 [Example 241, 1-(5-(3-cyano-6-(1-methyl-1H-pyrazol-4-yl)pyrazolo[1,5-a]pyridin-4-yl)pyridin-2-yl)-N-((1s,3s)-3-methoxycyclobutyl) piperidine-4-carboxamide] | 1.84
Cn1cc(-c2cc(-c3ccc(N4CCC(C(=O)N5CCCC5)CC4)nc3)c3c(C#N)cnn3c2)cn1 [Example 248, 6-(1-methyl-1H-pyrazol-4-yl)-4-(6-(4-(pyrrolidine-1-carbonyl)piperidin-1-yl)pyridin-3-yl)pyrazolo[1,5-a]pyridine-3-carbonitrile] | 1.24
N#Cc1cnn2cc(-c3cnn(C(F)F)c3)cc(-c3ccc(N4CCN(C(=O)[C@H](O)c5ccccc5)CC4)nc3)c12 [Example 268, (R)-6-(1-(difluoromethyl)-1H-pyrazol-4-yl)-4-(6-(4-(2-hydroxy-2-phenylacetyl)piperazin-1-yl)pyridin-3-yl)pyrazolo[1,5-a]pyridine-3-carbonitrile] | 0.497

Further lines, results first:

IC50 [µM] | Structure (SMILES)
0.555 | Cn1cc(-c2cc(-c3ccc(N4CCOCC4)nc3)c3c(C#N)cnn3c2)cn1 [Example 224, 6-(1-methyl-1H-pyrazol-4-yl)-4-(6-morpholinopyridin-3-yl)pyrazolo[1,5-a]pyridine-3-carbonitrile]
4.53 | CC(C)NC(=O)[C@@H]1CN(c2ccc(-c3cc(-c4cnn(C)c4)cn4ncc(C#N)c34)cn2)CCO1 [Example 228, (S)-4-(5-(3-cyano-6-(1-methyl-1H-pyrazol-4-yl)pyrazolo[1,5-a]pyridin-4-yl)pyridin-2-yl)-N-isopropylmorpholine-2-carboxamide]
0.42 | Cn1cc(-c2cc(-c3ccc(N4CCC(C(=O)NC5CC(F)(F)C5)CC4)nc3)c3c(C#N)cnn3c2)cn1 [Example 238, 1-(5-(3-cyano-6-(1-methyl-1H-pyrazol-4-yl)pyrazolo[1,5-a]pyridin-4-yl)pyridin-2-yl)-N-(3,3-difluorocyclobutyl) piperidine-4-carboxamide]
2.77 | Cn1cc(-c2cc(-c3ccc(N4CC[C@@H](C(=O)NCCC(F)(F)F)C4)nc3)c3c(C#N)cnn3c2)cn1 [Example 259, (R)-1-(5-(3-cyano-6-(1-methyl-1H-pyrazol-4-yl)pyrazolo[1,5-a]pyridin-4-yl)pyridin-2-yl)-N-(3,3,3-trifluoropropyl)pyrrolidine-3-carboxamide]
≥ 5 | Cn1cc(-c2cc(-c3ccc(N4CC[C@@H](C(=O)N5CCCC5)C4)nc3)c3c(C#N)cnn3c2)cn1 [Example 260, (R)-6-(1-methyl-1H-pyrazol-4-yl)-4-(6-(3-(pyrrolidine-1-carbonyl)pyrrolidin-1-yl)pyridin-3-yl)pyrazolo[1,5-a]pyridine-3-carbonitrile]
0.617 | Cn1cc(-c2cc(-c3ccc(N4CC[C@H](C(=O)NCCC(F)(F)F)C4)nc3)c3c(C#N)cnn3c2)cn1 [Example 262, (S)-1-(5-(3-cyano-6-(1-methyl-1H-pyrazol-4-yl)pyrazolo[1,5-a]pyridin-4-yl)pyridin-2-yl)-N-(3,3,3-trifluoropropyl)pyrrolidine-3-carboxamide]
